# Reference: US9453004B2, “Formylated xanthocillin analogues as neuroprotective agents” (NEURON BIOPHARMA, S.A., priority 2012, dated 2016)
# Legend:
# [1] = system: SK-N-MC cells expressing wild-type APP (APPwt); test: Camptothecin-induced apoptosis (DNA fragmentation, flow cytometry) in APPwt cells; format: cell-based, human; details: pre-treatment 24 hours at 4 and 10 μg/ml, then 50 μM CPT for 6 hours
# Method: (§1) Based on the preceding results, the researchers decided to analyze the antiapoptotic effect of compounds NPS0155 and NPS0156. The assays were performed on two SK-N-MC human neuroblastoma culture cell lines stably transfected with constructs expressing the amyloid precursor protein (APP) gene encoding for the isoform primarily expressed in the brain, containing 695 amino acids cloned into the expression vector pcDNA3.1 (Invitrogen). One of the lines expresses the wild-type APP (APPwt) gene and the other line expresses the gene APP with the Swedish mutation (APPswe) which is a double mutation in exon 16 of the gene and produces a G to T transversion yielding the change of amino acid Lys595Asn and another A to C transversion causing the Met596Leu change, said mutation being related to the senile or hereditary forms of Alzheimer's disease. […] To determine the effect of compounds NPS0155 and NPS0156 on apoptosis (programmed cell death), DNA fragmentation was analyzed by means of flow cytometry, produced by treatment with camptothecin (CPT) inhibiting the topoisomerase I enzyme, which impedes DNA duplication and triggers apoptotic cell death. […] They were maintained at 4° C. for 18 hours and after this time, they were analyzed by flow cytometry, measuring propidium iodide fluorescence as DNA content distribution.
# [2] = system: SK-N-MC human neuroblastoma culture cells; test: XXO-induced cell death in real time (RTCA cell index); format: cell-based; details: 20 hours post-treatment
# Method: These cells, not exceeding 15 passages, were seeded on E-plate 16 specific for a real time assay with the RTCA system (Real-Time Cell Analyzer, […], Roche) with a cell density of 5×10^4 cells/well. After 24 hours of cell incubation at 37° C. and 5% CO2, the cell treatments for the control conditions (culture medium); XXO (10 μM xanthine/60 mU/mL xanthine oxidase); XXO plus […] or […] at 10, 40, 100, 400, 1000 or 4000 ng/ml, were performed. The cells were incubated (at 37° C. and 5% CO2) with these treatments for 72 hours, was monitored every 10 minutes. The values that are obtained are arbitrary units indicated by the cell index, calculated from the impedance data, which is a electrical parameter that establishes the relationship between the voltage and current intensity of the adhered cells which is used as a measurement of cell viability. […] The assay was performed following the same method as the one described in Example 6, testing the analogues at 40, 100, 400 or 1000 ng/ml in the presence of XXO. The cells were incubated (at 37° C. and 5% CO2) with these treatments for 72 hours, and was monitored every 10 minutes. The values that are obtained are arbitrary units indicated by cell index, calculated from the impedance data and used as a measurement of cell viability.
# [3] = system: SK-N-MC cells expressing APP with the Swedish mutation (APPswe); test: Camptothecin-induced apoptosis (DNA fragmentation, flow cytometry) in APPswe cells; format: cell-based, human; details: pre-treatment 24 hours at 4 and 10 μg/ml, then 50 μM CPT for 6 hours
# Method: as §1
# [4] = TEAC in vitro antioxidant capacity assay; format: biochemical
# From the text: Based on the preceding results, the inventors decided to evaluate in vitro antioxidant capacity of the extract, for which the TEAC assay ([…]) was used. This method is based on the formation of the ferryl-myoglobin radical produced by reacting metmyoglobin with hydrogen peroxide, followed by the oxidation of the ABTS [2,2′-azino-bis(3-ethylbenzthiazoline-6-sulfonic acid] reagent by ferryl-myoglobin, which produces the radical cation ABTS*+, which can be colorimetrically determined. In this assay, the compounds with antioxidant capacity suppress the production of the radical in a concentration-dependent manner. A standard curve with increasing concentrations of trolox (6-hydroxy-2,5,7,8-tetramethylchroman-2-carboxylic acid, hydrosoluble vitamin E analogue) is used to quantify antioxidant capacity, such that the results are indicated as a measurement of trolox equivalents (TE).
# Based on the preceding results, the researchers decided to analyze the in vitro antioxidant capacity of compounds NPS0155 and NPS0156 by means of the TEAC assay, described in Example 2. A standard curve with increasing concentrations of trolox (hydrosoluble vitamin E analogue) was used to quantify antioxidant capacity, such that the results are indicated as a measurement of trolox equivalents (TE).
# [5] = ABTS*+ method, in vitro antioxidant capacity for lipophilic compounds; format: biochemical; details: for 0.1 μg of each compound
# From the text: Based on the preceding results, the inventors decided to evaluate the in vitro antioxidant capacity of the synthesized analogues, using an antioxidant capacity measurement assay valid for lipophilic compounds, according to the ABTS*^+ method (Samaniego et al. 2007. Analytica Chimica Acta 593: 103-107). This method is based on forming the ABTS*^+ radical cation by means of oxidation with ammonium persulfate of the ABTS reagent [2,2′-azino-bis(3-ethylbenzothiazoline-6-sulfonic acid], which can be colorimetrically determined. In this assay, the compounds with antioxidant capacity suppress the oxidation of the radical in a concentration-dependent manner. A standard curve with increasing concentrations of trolox (hydrosoluble vitamin E analogue) is used to quantify antioxidant capacity, such that the results are indicated as a measurement of trolox equivalents (TE). The results obtained for analogues NPS0158 and NPS0159 are 174±13 μM TE and 165±44 μM TE, respectively, for 0.1 μg of each compound, so they show high in vitro antioxidant capacity.
# [6] = in vitro; details: PAMPA; for Papp at 4 h / percentage of permeability: pig; for percentage of permeability: 4 h
# Method: A mixture of lipids derived from pig brain, with a phospholipid composition very similar to the composition forming the human BBB, and referred to as PBL (Porcine Polar Brain Lipid, Avanti Polar Lipids Inc) which is prepared in microtiter plates with a MAIPNTR10 filter (Millipore), with a PVDF membrane and pore size of […], was used to mimic the blood-brain barrier. […] The percentage of barrier crossing and the effective permeability (Pe) were calculated based on the absorbance data obtained. The following formula was applied to calculate the Pe: […]
# [7] = system: SK-N-MC human neuroblastoma culture cells; test: Camptothecin-induced apoptosis (DNA fragmentation, flow cytometry) in SK-N-MC cells; format: cell-based; details: CPT
# Method: Based on the preceding results, the researchers decided to analyze the antiapoptotic effect of compounds NPS0155 and NPS0156. The assays were performed on two SK-N-MC human neuroblastoma culture cell lines stably transfected with constructs expressing the amyloid precursor protein (APP) gene encoding for the isoform primarily expressed in the brain, containing 695 amino acids cloned into the expression vector pcDNA3.1 (Invitrogen). One of the lines expresses the wild-type APP (APPwt) gene and the other line expresses the gene APP with the Swedish mutation (APPswe) which is a double mutation in exon 16 of the gene and produces a G to T transversion yielding the change of amino acid Lys595Asn and another A to C transversion causing the Met596Leu change, said mutation being related to the senile or hereditary forms of Alzheimer's disease. The cells were maintained as the parent cells SK-N-MC, as detailed in Example 2, using geneticin at 400 μg/ml as a selection antibiotic. To determine the effect of compounds NPS0155 and NPS0156 on apoptosis (programmed cell death), DNA fragmentation was analyzed by means of flow cytometry, produced by treatment with camptothecin (CPT) inhibiting the topoisomerase I enzyme, which impedes DNA duplication and triggers apoptotic cell death. The two cell lines, not exceeding 10 passages, were seeded on 12-well microtite plate treated for adherent cells with a cell density of 4×10^5 cells/well. After 24 hours of cell incubation at 37° C. and 5% CO2, the pre-treatment of the cells with 4 and 10 μg/mL of NPS0155 or of NPS0156 for 24 hours was performed; they were subsequently treated with 50 μM CPT for 6 hours. After treatment, the cells were collected together with their culture medium and centrifuged at 300×g for 5 minutes. The medium was removed, the cells were washed with PBS solution and were fixed for 2 minutes with 500 μL of 70% ethanol at −20° C. Once they were fixed, they were centrifuged at 400×g for 5 minutes, washed with PBS and labeled with 0.05 mg/mL of propidium iodide, diluted in cycle buffer (0.1% citrate sodium, 0.3% Nonidet P-40 and 0.02 mg/mL RNAse), and were incubated for 1 hour at 37° C. They were maintained at 4° C. for 18 hours and after this time, they were analyzed by flow cytometry, measuring propidium iodide fluorescence as DNA content distribution.
# Continuing with the study, the researchers decided to analyze the antiapoptotic effect of the synthesized analogues by analyzing cellular DNA fragmentation by means of flow cytometry. The cellular fragmentation measurement assay was performed on SK-N-MC human neuroblastoma culture cells, maintained as detailed in Example 2, and subjected to an aggression with camptothecin (CPT), following the same approach as the one described in Example 8. […]
# [8] = system: SK-N-MC human neuroblastoma culture cells; test: ROS measurement (H2DCFDA, normalized by LDH) in cells treated with XXO; format: cell-based
# Method: Based on the preceding results, the inventors decided to evaluate the antioxidant capacity of the analogues in a cell model. The ROS measurement assay was performed on SK-N-MC human neuroblastoma culture cells, maintained as detailed in Example 2, subjected to aggression with xanthine/xanthine oxidase (XXO). The ROS measurement is taken by means of adding a permeable non-fluorescent probe in live cells (2′,7′-dichlorodihydrofluorescein diacetate, H2DCFDA; Biotium) which is oxidized by the action of ROS, generating 2′,7′-dichlorofluorescein (DCF) which can be detected in a fluorometer at 485 nm of excitation and 538 nm of emission. The fluorescence results were normalized by cell viability, measured by means of lactate dehydrogenase (LDH) activity, using the Roche Cytotoxicity Detection Kit (LDH). The results obtained with the analogues on the production of ROS are shown in FIG. 29 as the percentage of ROS corrected by LDH with respect to treatment with XXO of each analogue in a dose-response curve. A known ROS reduction control compound (C+) was used. * indicates the significant difference with respect to treatment with XXO according to the Student's t test (p<0.05).
structure (smiles),measurement,setting,value
"O=CNC(=C\c1ccc(O)cc1)/C(=C/c1ccc(O)c(O)c1)NC=O [NPS0155, (1Z,3Z)-1-(3,4-dihydroxyphenyl)-4-(4-hydroxyphenyl)-2,3-diformamido-1,3-butadiene]",protection against apoptosis caused by CPT,[1],Protection by NPS0155 was observed at the two tested doses
same,maximum protection against death caused by XXO,[2]; at 100 ng/ml,27%
same,protection against apoptosis caused by CPT,[3],Protection by NPS0155 was observed at the two tested doses
same,"antioxidant capacity, trolox equivalents (TE)",[4],81±19 μM TE/μg of compound
"O=CNC(=C\c1ccc(O)cc1)/C(=C/c1ccc(O)cc1)NC=O [NPS0156, (1Z,3Z)-1,4-Di(4-hydroxyphenyl)-2,3-diformamido-1,3-butadiene]",protection against apoptosis caused by CPT,[1],Protection by NPS0156 was observed at the two tested doses
same,maximum protection against death caused by XXO,[2]; at 100 ng/ml,69%
same,protection against apoptosis caused by CPT,[3],Protection by NPS0156 was observed at the two tested doses
same,"antioxidant capacity, trolox equivalents (TE)",[4],104±29 μM TE/μg of compound
"Cc1ccc(/C=C(NC=O)/C(=C/c2ccc(C)cc2)NC=O)cc1 [NPS0158, (1Z,2Z)-2-(formylamino)-1-(4-methylbenzylidene)-3-(4-methylphenyl)prop-2-enylformamide]","antioxidant capacity, trolox equivalents (TE)",[5],174±13 μM TE
same,BBB permeability (conclusion),[6],moderate
same,Papp at 4 h,[6],5.19 ×10⁻⁶ cm/s
same,percentage of permeability,[6],13%
same,maximum protection against death caused by XXO,[2]; at 1000 ng/ml,27%
same,maximum protection against apoptosis,[7]; at 10 μg/ml,28%
same,"maximum ROS reduction (ROS corrected by LDH, with respect to XXO)",[8]; at 100 ng/ml,34%
"O=CNC(=C\c1ccc2c(c1)OCO2)/C(=C/c1ccc2c(c1)OCO2)NC=O [NPS0159, (1Z,2Z)-3-(1,3-benzodioxol-5-yl)-1-(1,3-benzodioxol-5-ylmethylen)-2-(formylamino)prop-2-enylformamide]","antioxidant capacity, trolox equivalents (TE)",[5],165±44 μM TE
same,maximum protection against death caused by XXO,[2]; at 1000 ng/ml,35%
same,maximum protection against apoptosis,[7]; at 10 μg/ml,23%
same,"maximum ROS reduction (ROS corrected by LDH, with respect to XXO)",[8]; at 100 ng/ml,27%
"CCOc1ccc(/C=C(NC=O)/C(=C/c2ccc(OCC)cc2)NC=O)cc1 [NPS0160, (1Z,2Z)-2-(formylamino)-1-(4-ethoxybenzylidene)-3-(4-ethoxyphenyl)prop-2-enylformamide]",maximum protection against death caused by XXO,[2]; at 100 ng/ml,23%
same,maximum protection against apoptosis,[7]; at 1 μg/ml,30%
same,"maximum ROS reduction (ROS corrected by LDH, with respect to XXO)",[8]; at 100 ng/ml,31%
"Cc1ccc(/C=C(NC=O)/C(=C/c2ccc(C)c(C)c2)NC=O)cc1C [NPS0161, (1Z,2Z)-1-(3,4-dimethylbenzylidene)-3-(3,4-dimethylphenyl)-2-(formylamino)-prop-2-enylformamide]",BBB permeability (conclusion),[6],high
same,Papp at 4 h,[6],14.7 ×10⁻⁶ cm/s
same,percentage of permeability,[6],29%
same,maximum protection against death caused by XXO,[2]; at 100 ng/ml,26%
same,maximum protection against apoptosis,[7]; at 0.1 μg/ml,35%
same,"maximum ROS reduction (ROS corrected by LDH, with respect to XXO)",[8]; at 400 ng/ml,45%
